{"source": "paper PMC5290327", "about": "“SC83288 is a clinical development candidate for the treatment of severe malaria” (Nature Communications, 2017)", "assay_in_all_cases": "KINOMEscan", "type_in_all_cases": "binding", "settings_in_all_cases": "read-out: Remaining enzyme activity", "key": {"[1]": {"target": "T1, KIT(L576P) (Homo sapiens, UniProt P10721, L576P)", "T1 construct": "purchased Ambit (DiscoverX) KINOMEscan; Cerep", "T1 sequence (P10721 26-976 L576P)": "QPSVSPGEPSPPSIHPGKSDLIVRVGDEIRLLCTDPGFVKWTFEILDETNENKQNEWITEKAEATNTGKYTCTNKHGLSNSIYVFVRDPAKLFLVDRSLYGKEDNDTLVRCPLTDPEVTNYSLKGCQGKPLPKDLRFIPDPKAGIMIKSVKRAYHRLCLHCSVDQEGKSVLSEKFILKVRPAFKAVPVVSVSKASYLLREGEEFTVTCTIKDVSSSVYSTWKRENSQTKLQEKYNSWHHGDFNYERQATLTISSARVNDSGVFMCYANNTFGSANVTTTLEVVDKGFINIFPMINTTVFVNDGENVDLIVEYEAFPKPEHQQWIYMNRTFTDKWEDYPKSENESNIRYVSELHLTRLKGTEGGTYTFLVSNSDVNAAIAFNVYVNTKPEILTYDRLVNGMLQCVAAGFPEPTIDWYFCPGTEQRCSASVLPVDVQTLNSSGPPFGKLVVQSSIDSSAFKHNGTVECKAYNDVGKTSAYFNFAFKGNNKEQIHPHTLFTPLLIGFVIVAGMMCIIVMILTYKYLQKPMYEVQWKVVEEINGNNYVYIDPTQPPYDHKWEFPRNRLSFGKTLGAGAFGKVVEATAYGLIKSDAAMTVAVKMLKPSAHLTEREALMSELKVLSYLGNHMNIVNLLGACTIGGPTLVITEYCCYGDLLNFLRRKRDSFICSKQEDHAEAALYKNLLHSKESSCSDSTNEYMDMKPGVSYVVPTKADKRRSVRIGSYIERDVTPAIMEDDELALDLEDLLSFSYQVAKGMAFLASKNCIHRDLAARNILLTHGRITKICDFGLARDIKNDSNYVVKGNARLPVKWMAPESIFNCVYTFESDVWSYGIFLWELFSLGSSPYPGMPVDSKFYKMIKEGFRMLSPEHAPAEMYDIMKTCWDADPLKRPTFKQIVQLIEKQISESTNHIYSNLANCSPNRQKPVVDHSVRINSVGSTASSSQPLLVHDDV", "method_in_brief": "(§1)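 qPCR of a DNA tag reports how much kinase stays bound to ligand-coated beads in the presence of 10 μM SC81458, diluted from a DMSO stock. Kinase sources were T7 phage lysates from E. coli or HEK-293-expressed protein tagged with DNA.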"}, "[2]": {"target": "T2, CAMK4 (Homo sapiens, UniProt Q16566)", "T2 construct": "purchased Ambit (DiscoverX) KINOMEscan; Cerep", "method_in_brief": "as §1"}, "[3]": {"target": "T3, KIT(V559D, V654A) (Homo sapiens, UniProt P10721, V559D/V654A)", "T3 construct": "purchased Ambit (DiscoverX) KINOMEscan; Cerep", "T3 sequence (P10721 26-976 V559D/V654A)": "as the sequence (P10721 26-976 L576P) above, with V534D, P551L, V629A counted along it", "method_in_brief": "as §1"}, "[4]": {"target": "T4, TIE1 (Homo sapiens, UniProt P35590)", "T4 construct": "purchased Ambit (DiscoverX) KINOMEscan; Cerep", "method_in_brief": "as §1"}, "[5]": {"target": "T5, TYRO3 (Homo sapiens, UniProt Q06418)", "T5 construct": "purchased Ambit (DiscoverX) KINOMEscan; Cerep", "method_in_brief": "as §1"}, "[6]": {"target": "T6, PIP5K2b (Homo sapiens, UniProt P78356)", "T6 construct": "purchased Ambit (DiscoverX) KINOMEscan; Cerep", "method_in_brief": "as §1"}, "[7]": {"target": "T7, PRKD2 (Homo sapiens, UniProt Q9BZL6)", "T7 construct": "purchased Ambit (DiscoverX) KINOMEscan; Cerep", "method_in_brief": "as §1"}, "[8]": {"target": "T8, PIM2 (Homo sapiens, UniProt Q9P1W9)", "T8 construct": "purchased Ambit (DiscoverX) KINOMEscan; Cerep", "method_in_brief": "as §1"}, "[9]": {"target": "T9, OSR1 (Homo sapiens, UniProt O95747)", "T9 construct": "purchased Ambit (DiscoverX) KINOMEscan; Cerep", "method_in_brief": "as §1"}, "[10]": {"target": "T10, EGFR(E46-A750del) (Homo sapiens, UniProt P00533, DEL746-750)", "T10 construct": "purchased Ambit (DiscoverX) KINOMEscan; Cerep", "method_in_brief": "as §1"}, "[11]": {"target": "T11, RET(M918T) (Homo sapiens, UniProt P07949, M918T)", "T11 construct": "purchased Ambit (DiscoverX) KINOMEscan; Cerep", "method_in_brief": "as §1"}, "[12]": {"target": "T12, RPS6KA6(Kin.Dom.1-N-term) (Homo sapiens, UniProt Q9UK32)", "T12 construct": "RPS6KA6(Kin.Dom.1-N-term); purchased Ambit (DiscoverX) KINOMEscan; Cerep", "T12 sequence (Q9UK32 73-330 limits assumed)": "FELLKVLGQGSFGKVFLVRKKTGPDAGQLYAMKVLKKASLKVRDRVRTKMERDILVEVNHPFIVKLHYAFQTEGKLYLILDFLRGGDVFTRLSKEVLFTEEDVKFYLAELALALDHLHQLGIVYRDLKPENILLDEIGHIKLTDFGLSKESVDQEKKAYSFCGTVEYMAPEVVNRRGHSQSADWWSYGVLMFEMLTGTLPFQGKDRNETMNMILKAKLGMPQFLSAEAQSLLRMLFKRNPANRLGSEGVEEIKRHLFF", "method_in_brief": "as §1"}, "[13]": {"target": "T13, ABL1(Q252H) (Homo sapiens, UniProt P00519, Q252H)", "T13 construct": "purchased Ambit (DiscoverX) KINOMEscan; Cerep", "method_in_brief": "as §1"}, "[14]": {"target": "T14, p38-delta (Homo sapiens, UniProt O15264)", "T14 construct": "purchased Ambit (DiscoverX) KINOMEscan; Cerep", "method_in_brief": "as §1"}, "[15]": {"target": "T15, CDK7 (Homo sapiens, UniProt P50613)", "T15 construct": "purchased Ambit (DiscoverX) KINOMEscan; Cerep", "method_in_brief": "as §1"}, "[16]": {"target": "T16, FYN (Homo sapiens, UniProt P06241)", "T16 construct": "purchased Ambit (DiscoverX) KINOMEscan; Cerep", "method_in_brief": "as §1"}, "[17]": {"target": "T17, ACVRL1 (Homo sapiens, UniProt P37023)", "T17 construct": "purchased Ambit (DiscoverX) KINOMEscan; Cerep", "T17 sequence (P37023 22-503)": "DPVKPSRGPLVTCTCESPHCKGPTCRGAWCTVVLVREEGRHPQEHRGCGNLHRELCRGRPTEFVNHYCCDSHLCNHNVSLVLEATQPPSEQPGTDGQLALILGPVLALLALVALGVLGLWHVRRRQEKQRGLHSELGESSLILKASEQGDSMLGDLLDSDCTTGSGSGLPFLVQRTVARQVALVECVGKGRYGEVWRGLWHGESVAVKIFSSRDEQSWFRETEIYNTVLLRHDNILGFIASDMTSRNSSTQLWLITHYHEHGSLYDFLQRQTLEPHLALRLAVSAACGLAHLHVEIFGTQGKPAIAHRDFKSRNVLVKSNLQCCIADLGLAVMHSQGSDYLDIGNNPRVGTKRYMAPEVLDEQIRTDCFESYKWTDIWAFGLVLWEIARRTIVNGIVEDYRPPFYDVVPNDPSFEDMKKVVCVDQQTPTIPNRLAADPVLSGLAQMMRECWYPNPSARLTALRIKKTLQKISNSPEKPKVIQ", "method_in_brief": "as §1"}, "[18]": {"target": "T18, QSK (Homo sapiens, UniProt Q9Y2K2)", "T18 construct": "purchased Ambit (DiscoverX) KINOMEscan; Cerep", "method_in_brief": "as §1"}, "[19]": {"target": "T19, CDK11 (Homo sapiens, UniProt Q9BWU1)", "T19 construct": "purchased Ambit (DiscoverX) KINOMEscan; Cerep", "method_in_brief": "as §1"}, "[20]": {"target": "T20, CLK1 (Homo sapiens, UniProt P49759)", "T20 construct": "purchased Ambit (DiscoverX) KINOMEscan; Cerep", "method_in_brief": "as §1"}, "[21]": {"target": "T21, FGFR3 (Homo sapiens, UniProt P22607)", "T21 construct": "purchased Ambit (DiscoverX) KINOMEscan; Cerep", "T21 sequence (P22607 23-806)": "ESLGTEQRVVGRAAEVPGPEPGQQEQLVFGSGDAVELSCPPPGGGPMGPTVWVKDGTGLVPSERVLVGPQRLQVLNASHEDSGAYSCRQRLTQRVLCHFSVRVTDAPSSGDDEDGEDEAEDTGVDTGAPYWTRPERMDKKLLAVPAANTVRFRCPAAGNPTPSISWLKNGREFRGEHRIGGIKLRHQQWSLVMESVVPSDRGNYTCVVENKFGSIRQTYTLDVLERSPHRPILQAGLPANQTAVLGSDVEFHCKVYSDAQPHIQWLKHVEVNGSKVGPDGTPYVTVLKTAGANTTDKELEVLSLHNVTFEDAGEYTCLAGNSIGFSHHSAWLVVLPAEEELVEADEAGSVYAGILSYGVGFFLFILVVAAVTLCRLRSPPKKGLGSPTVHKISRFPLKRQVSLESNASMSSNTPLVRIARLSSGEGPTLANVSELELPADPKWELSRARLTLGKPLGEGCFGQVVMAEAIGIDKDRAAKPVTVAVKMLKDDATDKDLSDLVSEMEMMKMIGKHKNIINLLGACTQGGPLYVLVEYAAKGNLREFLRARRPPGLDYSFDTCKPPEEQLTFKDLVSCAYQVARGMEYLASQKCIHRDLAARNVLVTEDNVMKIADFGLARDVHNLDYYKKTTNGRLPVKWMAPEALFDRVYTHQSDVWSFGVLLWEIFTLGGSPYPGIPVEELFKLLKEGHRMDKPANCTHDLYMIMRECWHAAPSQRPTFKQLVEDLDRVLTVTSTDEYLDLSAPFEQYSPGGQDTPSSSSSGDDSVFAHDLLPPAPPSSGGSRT", "method_in_brief": "as §1"}, "[22]": {"target": "T22, CAMK1d (Homo sapiens, UniProt Q8IU85)", "T22 construct": "purchased Ambit (DiscoverX) KINOMEscan; Cerep", "method_in_brief": "as §1"}, "[23]": {"target": "T23, PKAC-beta (Homo sapiens, UniProt P22694)", "T23 construct": "purchased Ambit (DiscoverX) KINOMEscan; Cerep", "method_in_brief": "as §1"}, "[24]": {"target": "T24, RPS6KA4(Kin.Dom.1-N-term) (Homo sapiens, UniProt O75676)", "T24 construct": "RPS6KA4(Kin.Dom.1-N-term); purchased Ambit (DiscoverX) KINOMEscan; Cerep", "T24 sequence (O75676 33-301 limits assumed)": "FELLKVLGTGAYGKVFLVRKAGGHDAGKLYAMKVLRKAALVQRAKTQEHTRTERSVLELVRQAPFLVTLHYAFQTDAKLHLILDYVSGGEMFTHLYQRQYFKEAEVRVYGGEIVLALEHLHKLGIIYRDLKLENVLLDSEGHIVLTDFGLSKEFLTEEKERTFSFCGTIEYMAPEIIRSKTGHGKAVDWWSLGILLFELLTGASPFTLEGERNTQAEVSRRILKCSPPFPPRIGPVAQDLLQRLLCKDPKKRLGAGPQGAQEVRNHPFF", "method_in_brief": "as §1"}, "[25]": {"target": "T25, RET (Homo sapiens, UniProt P07949)", "T25 construct": "purchased Ambit (DiscoverX) KINOMEscan; Cerep", "method_in_brief": "as §1"}, "[26]": {"target": "T26, EPHA1 (Homo sapiens, UniProt P21709)", "T26 construct": "purchased Ambit (DiscoverX) KINOMEscan; Cerep", "method_in_brief": "as §1"}, "[27]": {"target": "T27, PIK3CA(M1043I) (Homo sapiens, UniProt P42336, M1043I)", "T27 construct": "purchased Ambit (DiscoverX) KINOMEscan; Cerep", "method_in_brief": "as §1"}, "[28]": {"target": "T28, DCAMKL1 (Homo sapiens, UniProt O15075)", "T28 construct": "purchased Ambit (DiscoverX) KINOMEscan; Cerep", "T28 sequence (O15075 whole entry)": "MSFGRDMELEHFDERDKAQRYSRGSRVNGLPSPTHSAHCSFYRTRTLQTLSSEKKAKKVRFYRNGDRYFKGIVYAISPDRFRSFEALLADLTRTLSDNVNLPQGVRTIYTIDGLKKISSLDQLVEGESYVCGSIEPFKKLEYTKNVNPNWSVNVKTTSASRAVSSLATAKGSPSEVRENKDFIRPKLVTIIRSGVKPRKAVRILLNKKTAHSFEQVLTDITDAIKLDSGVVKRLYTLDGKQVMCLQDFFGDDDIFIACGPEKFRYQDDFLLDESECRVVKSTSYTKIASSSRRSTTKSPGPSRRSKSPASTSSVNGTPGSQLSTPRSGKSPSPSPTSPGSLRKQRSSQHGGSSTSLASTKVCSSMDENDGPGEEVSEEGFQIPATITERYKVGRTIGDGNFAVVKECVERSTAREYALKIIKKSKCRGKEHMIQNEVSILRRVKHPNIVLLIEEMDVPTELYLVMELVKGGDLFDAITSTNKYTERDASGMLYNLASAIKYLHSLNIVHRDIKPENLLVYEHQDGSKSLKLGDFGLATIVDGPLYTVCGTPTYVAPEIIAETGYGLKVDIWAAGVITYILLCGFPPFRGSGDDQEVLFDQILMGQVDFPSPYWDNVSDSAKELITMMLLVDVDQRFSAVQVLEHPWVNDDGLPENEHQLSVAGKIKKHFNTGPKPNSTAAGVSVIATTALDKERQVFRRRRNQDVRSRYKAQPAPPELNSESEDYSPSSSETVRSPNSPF", "method_in_brief": "as §1"}, "[29]": {"target": "T29, BMPR2 (Homo sapiens, UniProt Q13873)", "T29 construct": "purchased Ambit (DiscoverX) KINOMEscan; Cerep", "method_in_brief": "as §1"}, "[30]": {"target": "T30, PYK2 (Homo sapiens, UniProt Q14289)", "T30 construct": "purchased Ambit (DiscoverX) KINOMEscan; Cerep", "method_in_brief": "as §1"}, "[31]": {"target": "T31, MKNK2 (Homo sapiens, UniProt Q9HBH9)", "T31 construct": "purchased Ambit (DiscoverX) KINOMEscan; Cerep", "method_in_brief": "as §1"}, "[32]": {"target": "T32, ASK2 (Homo sapiens, UniProt O95382)", "T32 construct": "purchased Ambit (DiscoverX) KINOMEscan; Cerep", "T32 sequence (O95382 whole entry)": "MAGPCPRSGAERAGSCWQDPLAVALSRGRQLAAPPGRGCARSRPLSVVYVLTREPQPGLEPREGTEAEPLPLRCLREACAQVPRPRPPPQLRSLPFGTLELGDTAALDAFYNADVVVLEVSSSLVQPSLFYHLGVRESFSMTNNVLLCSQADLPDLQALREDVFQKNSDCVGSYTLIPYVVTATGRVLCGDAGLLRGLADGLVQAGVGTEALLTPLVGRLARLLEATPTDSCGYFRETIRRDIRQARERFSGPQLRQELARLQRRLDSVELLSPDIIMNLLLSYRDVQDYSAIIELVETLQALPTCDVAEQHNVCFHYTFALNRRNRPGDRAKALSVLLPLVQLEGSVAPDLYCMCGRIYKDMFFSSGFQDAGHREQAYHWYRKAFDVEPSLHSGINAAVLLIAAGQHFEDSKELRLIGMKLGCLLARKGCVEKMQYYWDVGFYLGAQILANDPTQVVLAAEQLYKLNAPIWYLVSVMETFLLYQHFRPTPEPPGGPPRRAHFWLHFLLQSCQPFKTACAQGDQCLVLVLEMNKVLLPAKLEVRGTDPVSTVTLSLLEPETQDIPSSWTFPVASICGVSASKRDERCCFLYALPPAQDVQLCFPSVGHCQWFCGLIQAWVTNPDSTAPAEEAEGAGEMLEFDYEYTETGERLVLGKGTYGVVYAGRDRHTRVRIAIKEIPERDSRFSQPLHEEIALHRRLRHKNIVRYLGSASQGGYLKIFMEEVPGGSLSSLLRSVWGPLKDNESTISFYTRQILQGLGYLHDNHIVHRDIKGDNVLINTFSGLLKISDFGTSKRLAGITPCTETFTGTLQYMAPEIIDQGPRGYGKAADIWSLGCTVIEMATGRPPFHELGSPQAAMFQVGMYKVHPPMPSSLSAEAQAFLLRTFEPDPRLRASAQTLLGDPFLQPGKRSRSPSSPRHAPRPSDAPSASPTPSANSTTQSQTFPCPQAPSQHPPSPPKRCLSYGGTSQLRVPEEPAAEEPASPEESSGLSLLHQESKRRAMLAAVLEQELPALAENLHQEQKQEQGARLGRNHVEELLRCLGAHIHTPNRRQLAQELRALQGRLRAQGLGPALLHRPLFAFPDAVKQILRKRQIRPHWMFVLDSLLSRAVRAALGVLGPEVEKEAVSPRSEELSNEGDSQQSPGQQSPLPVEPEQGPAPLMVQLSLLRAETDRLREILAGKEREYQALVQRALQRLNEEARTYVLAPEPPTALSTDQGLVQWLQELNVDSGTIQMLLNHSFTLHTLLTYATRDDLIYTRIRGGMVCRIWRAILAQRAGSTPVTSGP", "method_in_brief": "as §1"}}}
{"smiles": "CCCCN1CCN(C(=N)c2cccc(NC(=O)Nc3ccc(S(=O)(=O)NCc4ccc(S(N)(=O)=O)cc4)cc3)c2)CC1", "note": "[SC81458, 4-(3-(3-((4-butylpiperazin-1-yl)(imino)methyl)phenyl)ureido)-N-(4-sulfamoylbenzyl) benzenesulfonamide]", "values": [{"measurement": "remaining binding at 10 µM", "setting": "[1]", "result": 66, "unit": "%"}, {"measurement": "remaining binding at 10 µM", "setting": "[2]", "result": 51, "unit": "%"}, {"measurement": "remaining binding at 10 µM", "setting": "[3]", "result": 100, "unit": "%"}, {"measurement": "remaining binding at 10 µM", "setting": "[4]", "result": 99, "unit": "%"}, {"measurement": "remaining binding at 10 µM", "setting": "[5]", "result": 79, "unit": "%"}, {"measurement": "remaining binding at 10 µM", "setting": "[6]", "result": 84, "unit": "%"}, {"measurement": "remaining binding at 10 µM", "setting": "[7]", "result": 97, "unit": "%"}, {"measurement": "remaining binding at 10 µM", "setting": "[8]", "result": 87, "unit": "%"}, {"measurement": "remaining binding at 10 µM", "setting": "[9]", "result": 100, "unit": "%"}, {"measurement": "remaining binding at 10 µM", "setting": "[10]", "result": 96, "unit": "%"}, {"measurement": "remaining binding at 10 µM", "setting": "[11]", "result": 100, "unit": "%"}, {"measurement": "remaining binding at 10 µM", "setting": "[12]", "result": 68, "unit": "%"}, {"measurement": "remaining binding at 10 µM", "setting": "[13]", "result": 95, "unit": "%"}, {"measurement": "remaining binding at 10 µM", "setting": "[14]", "result": 89, "unit": "%"}, {"measurement": "remaining binding at 10 µM", "setting": "[15]", "result": 100, "unit": "%"}, {"measurement": "remaining binding at 10 µM", "setting": "[16]", "result": 100, "unit": "%"}, {"measurement": "remaining binding at 10 µM", "setting": "[17]", "result": 72, "unit": "%"}, {"measurement": "remaining binding at 10 µM", "setting": "[18]", "result": 100, "unit": "%"}, {"measurement": "remaining binding at 10 µM", "setting": "[19]", "result": 91, "unit": "%"}, {"measurement": "remaining binding at 10 µM", "setting": "[20]", "result": 100, "unit": "%"}, {"measurement": "remaining binding at 10 µM", "setting": "[21]", "result": 100, "unit": "%"}, {"measurement": "remaining binding at 10 µM", "setting": "[22]", "result": 91, "unit": "%"}, {"measurement": "remaining binding at 10 µM", "setting": "[23]", "result": 78, "unit": "%"}, {"measurement": "remaining binding at 10 µM", "setting": "[24]", "result": 85, "unit": "%"}, {"measurement": "remaining binding at 10 µM", "setting": "[25]", "result": 89, "unit": "%"}, {"measurement": "remaining binding at 10 µM", "setting": "[26]", "result": 91, "unit": "%"}, {"measurement": "remaining binding at 10 µM", "setting": "[27]", "result": 100, "unit": "%"}, {"measurement": "remaining binding at 10 µM", "setting": "[28]", "result": 100, "unit": "%"}, {"measurement": "remaining binding at 10 µM", "setting": "[29]", "result": 100, "unit": "%"}, {"measurement": "remaining binding at 10 µM", "setting": "[30]", "result": 98, "unit": "%"}, {"measurement": "remaining binding at 10 µM", "setting": "[31]", "result": 100, "unit": "%"}, {"measurement": "remaining binding at 10 µM", "setting": "[32]", "result": 100, "unit": "%"}]}
